Test results from PMC9822270, “Modulation Effect on Tubulin Polymerization, Cytotoxicity and Antioxidant Activity of 1H-Benzimidazole-2-Yl Hydrazones” (Molecules, 2022).
Where “and” joins values, the source holds several entries; their conditions need not be identical. Equal values may be shown once. Entries after “also recorded” stand apart in the source; their conditions may differ. Read-outs that look alike come from different tables or passages of the source.

How the values were obtained:
[1] = test system: 3T3 (mouse embryo fibroblasts); experiment: Cytotoxicity against normal 3T3 cells; format: cell-based; settings: normal mouse embryo fibroblast cell line; ± SD
From the text: (§1) A standard colorimetric MTT assay was used to evaluate the anticancer activity of the newly synthesized 1H-benzimidazol-2-yl hydrazone derivatives against human malignant cell lines of different histological origin, namely MCF-7 (ER-positive breast adenocarcinoma) and AR-230 (BCR-ABL positive chronic myeloid leukemia), using podophyllotoxin as a reference drug. For each compound, the half-inhibitory concentrations (IC50) were estimated based on the derived “dose–response” relationships following 72h exposure time. In addition, their cytotoxicity was measured against normal fibroblast cells 3T3 (mouse embryo fibroblasts) and CCL-1 (murine fibroblasts) and respective cancer selectivity indices (CSI) were calculated (Table 2).
Evaluation of the cytotoxic activity of some of the compounds was performed on 3T3 (mouse embryo fibroblasts) cell line. The cells were cultivated in Dulbecco′s Modified Eagle′s Medium (DMEM), containing 10% FBS, with supplements L-glutamine, sodium pyruvate, antibiotic and non-essential amino acids, and allowed to adhere overnight at 37 °C in an incubator with 5% CO2 humidified atmosphere. At the end of the incubation, the cells were treated with different concentrations of the compounds in a final volume of 100 μL/well in triplicate wells for each treatment for 24 h at 37 °C in a CO2 incubator. All studies were repeated at least twice. Control cells were grown in DMEM containing 10% FBS and allowed to stabilize overnight at 37 °C in a CO2 incubator and left without treatment.

[2] = test system: MCF-7 (ER-positive breast adenocarcinoma); experiment: MTT cytotoxicity assay, MCF-7; format: cell-based, human; settings: for IC50: Homo sapiens, read-out: IC50 MCF-7
From the text: as §1
(§2) The cell lines MCF-7, AR-231 and CCL-1 were obtained from the German Collection of Microorganisms and Cell Cultures. Cells were kept in a controlled environment—RPMI-1640 medium supplemented with 10% fetal bovine serum (FBS) and 2mM L-glutamine, at 37 °C in an incubator with 5% CO2 humidified atmosphere.
(§3) MTT-based colorimetric assay was used for evaluating the cell viability. The method is based on the reduction of the yellow tetrazolium compound MTT to water-insoluble, violet formazan crystals. MCF-7, AR-231, and CCL-1 cells were seeded in 96-well, flatbottomed microplates (100 µL/well) at a density of 3 × 10^5 cells per mL and allowed to grow for 24 h prior the exposure to the studied compounds. Cells were exposed to the tested agents for 72 h. After the exposure period MTT solution (10 mg.mL^−1) aliquots (100 µL/well) were added to each well. The plates were further incubated for 4 h at 37 °C and the MTT-formazan crystals formed were dissolved through addition of […] of 5% HCOOH in 2-propanol. The absorption was measured at 580 nm using a microplate reader (Labexim LMR-1).

porcine brain tubulin = biological target: T1, porcine brain tubulin (Sus scrofa, UniProt P02550+P02554); experiment: In vitro tubulin polymerization assay (turbidity at 340 nm); format: biochemical; settings: 10 µM compound; for Initial Rate of the Exponential Phase, Signal Response / Lag Time: 37 °C, 90 min, turbidity 340 nm
T1 construct: The standard reaction mixture contains 95 μL of 4 mg.mL^−1 porcine brain tubulin; purchased Cytoskeleton, USA BK004P; host or cells: porcine brain (tissue-purified)
T1 sequence (P02550 whole entry): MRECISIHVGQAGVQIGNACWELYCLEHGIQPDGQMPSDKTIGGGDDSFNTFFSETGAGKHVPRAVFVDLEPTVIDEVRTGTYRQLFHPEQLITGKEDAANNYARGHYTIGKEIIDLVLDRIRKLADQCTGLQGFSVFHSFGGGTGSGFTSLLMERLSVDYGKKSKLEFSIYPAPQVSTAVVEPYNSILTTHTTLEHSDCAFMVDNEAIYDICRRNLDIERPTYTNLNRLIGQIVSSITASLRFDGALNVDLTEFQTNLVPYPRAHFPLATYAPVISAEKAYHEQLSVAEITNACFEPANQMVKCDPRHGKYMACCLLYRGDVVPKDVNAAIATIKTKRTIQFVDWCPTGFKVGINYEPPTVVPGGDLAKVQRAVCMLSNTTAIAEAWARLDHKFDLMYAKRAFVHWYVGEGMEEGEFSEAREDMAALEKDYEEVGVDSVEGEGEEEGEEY
T1 sequence (P02554 whole entry): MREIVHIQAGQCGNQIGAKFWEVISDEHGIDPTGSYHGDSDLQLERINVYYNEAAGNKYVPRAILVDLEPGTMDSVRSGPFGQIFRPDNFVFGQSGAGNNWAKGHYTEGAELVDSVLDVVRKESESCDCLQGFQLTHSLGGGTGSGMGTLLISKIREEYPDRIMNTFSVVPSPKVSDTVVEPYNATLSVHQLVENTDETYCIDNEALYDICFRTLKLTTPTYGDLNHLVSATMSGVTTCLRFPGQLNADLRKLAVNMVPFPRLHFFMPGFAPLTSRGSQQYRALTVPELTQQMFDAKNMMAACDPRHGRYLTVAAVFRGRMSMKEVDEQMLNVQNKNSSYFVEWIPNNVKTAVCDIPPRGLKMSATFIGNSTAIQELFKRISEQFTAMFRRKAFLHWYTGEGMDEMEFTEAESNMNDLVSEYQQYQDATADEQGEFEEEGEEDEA
Protocol: The ability of the compounds to modulate the polymerization of tubulin was evaluated in vitro on purified porcine tubulin by spectrophotometric monitoring at 340 nm and compared to those of nocodazole and paclitaxel as reference compounds. Nocodazole which inhibits the assembly of tubulin was used as a positive control, and paclitaxel which is a stabilizing agent of tubulin polymerization was used as a negative control. Tubulin polymerization was determined with 10 µM of the reference drugs and compounds 1a–l for 90 min.
Figure 3 Porcine brain tubulin (final […]) in presence of PB-GTP buffer, 10 µM paclitaxel, 10 µM nocodazole and 10 µM of the assayed compounds. Reaction was conducted in thermostated spectrophotometric chamber at 37 °C for 90 min. Turbidity was measured at 340 nm every 30 s.
The effect of the studied compounds on the polymerization of purified porcine tubulin was monitored using a commercial assay kit (cat. number BK004P), purchased from Cytoskeleton, USA. Stock solutions of porcine brain tubulin solutions (4 mg.mL^−1) were prepared immediately prior to use in general tubulin buffer (80 mM piperazine-N,N′-bis(2-ethanesulfonic acid, PIPES) pH 6.9, 2 mM MgCl2 and 0.5 mM (ethylene glycol-bis(β-aminoethyl ether)-N,N,N′,N′-tetraacetic acid, EGTA) containing 1 mM guanosine triphosphate (GTP) (G-PEM buffer). Stock solutions of Paclitaxel (100 µM), Noconazole (100 µM) or tested samples (100 µM) in G-PEM buffer containing 5% DMSO were prepared.
The standard reaction mixture contains 95 μL of 4 mg.mL^−1 porcine brain tubulin and 5 μL of standards, test samples or G-PEM buffer only (control). Then, the microplate with loaded reaction mixtures was incubated for 90 min. at 37 °C in a thermostated spectrophotometer chamber. The turbidity of the mixtures was measured at 340 nm every 30 s. The experiment was performed on SpectroStar Nano (BMG Labtech, Aylesbury, UK) equipped with software for kinetic measurements.

[3] = test system: AR-230 (BCR-ABL positive chronic myeloid leukemia); experiment: MTT cytotoxicity assay, AR-230; format: cell-based, human; settings: for IC50: Homo sapiens, read-out: IC50 AR-230
From the text: as §1, §2, §3

[4] = Hydroxyl radical averting capacity (HORAC); settings: gallic acid equivalents; sample final concentration 2.5 μM; Co(II)/H2O2, fluorescein; mean
Protocol: HORAC values of various phenolic compounds are related to their metal chelating properties and molecules that can chelate metals show significant HORAC values. According to the HORAC assays, the antioxidant capacity ranged between 0.50 and 3.03 GAE. […] To our knowledge, the current study is the first one to report ORAC and HORAC activities of 1H-benzimidazole-2-yl hydrazones.
HORAC was performed according to Ou et al. and fluorescein was used as the fluorescent probe. Hydrogen peroxide solution of 0.55 M was prepared in distilled water. 4.6 mM Co(II) was prepared as follows: 15.7 mg of CoF2.4H2O and 20 mg of picolinic acid were dissolved in 20 mL of distilled water. Fluorescein—170 µL (60 nM, final concentration) and 10 µL of sample were incubated at 37 °C for 10 min directly in the FLUOstar plate reader. […] The initial fluorescence was measured after which the readings were taken every minute after shaking. […] The AUC were calculated as they were for the ORAC assay. One HORAC unit was assigned to the net protection area provided by 1 µM gallic acid (final concentration −0.05 μM) and the activity of the sample was expressed as Gallic Acid Equivalents (GAE).
ORAC and HORAC analyses were carried out on a FLUOstar Galaxy plate reader (BMG Labtechnology, Offenburg, Germany) with excitation wavelength = 485 nm and emission wavelength = 520 nm.

[5] = test system: CCL-1 (murine fibroblasts); experiment: MTT cytotoxicity against normal CCL-1 cells; format: cell-based; settings: Mus musculus, 72 h, read-out: IC50 CCL-1
From the text: as §1, §2, §3

[6] = normal murine fibroblast cell line, MTT, ± SD

| SMILES | Initial Rate of the Exponential Phase, Signal Response (porcine brain tubulin) [a.u.s^−1 × 10^−6] | Lag Time (porcine brain tubulin) | lag time of tubulin polymerization (porcine brain tubulin) | IC50 [1] [µM] | IC50 ([2]; MCF7, MTT, 72 h exposure, ± SD) [µM] | CSI MCF-7 (cancer selectivity index) ([2]; IC50(3T3)/IC50(MCF-7)) | IC50 ([3]; MTT, 72 h exposure, ± SD) [µM] | CSI AR230 (cancer selectivity index) ([3]; IC50(3T3)/IC50(AR-230)) | HORAC [4] [GAE] | IC50 [5, 6] [µM] | CSI AR230 (cancer selectivity index) ([3]; IC50(CCL-1)/IC50(AR-230)) | CSI MCF-7 (cancer selectivity index) ([2]; IC50(CCL-1)/IC50(MCF-7)) | IC50 ([5]; Fibroblast) [µM] | IC50 ([2]; MCF7, 72 h) [µM] | IC50 ([3]; 72 h) [µM] |
| --- | --- | --- | --- | --- | --- | --- | --- | --- | --- | --- | --- | --- | --- | --- | --- |
| Oc1ccccc1/C=N/Nc1nc2ccccc2[nH]1 [Compound 1a] | 8.77 | 1390 s | – | 204 ± 5.1 | 18.7 ± 1.1 | ≈11 | 21.2 ± 2.3 | ≈9.6 | – | – | – | – | – | – | – |
| Oc1cccc(/C=N/Nc2nc3ccccc3[nH]2)c1O [Compound 1b] | 13.4 | 1400 s and 1461 s | – | 61.1 ± 1.8 | 64.5 ± 6.2 | ≈1 | 3.3 ± 0.3 | ≈18.4 | – | – | – | – | – | – | – |
| Oc1ccc(/C=N/Nc2nc3ccccc3[nH]2)c(O)c1 [Compound 1c] | 4.9 | 1190 s | – | – | – | – | – | – | 2.69 | – | – | – | – | – | – |
| Oc1ccc(/C=N/Nc2nc3ccccc3[nH]2)c(O)c1O [Compound 1e] | – | – | – | – | – | – | – | – | 2.79 | – | – | – | – | – | – |
| COc1cc([C@@H]2c3cc4c(cc3[C@H](O)[C@H]3COC(=O)[C@H]23)OCO4)cc(OC)c1OC [Podophyllotoxin, reference compound] | – | – | – | – | – | – | – | – | – | – | ≈5.7 | ≈9 | 2.7 | 0.3 ± 0.06 | 0.47 ± 0.09 |
| COC(=O)Nc1nc2ccc(C(=O)c3cccs3)cc2[nH]1 [nocodazole, reference compound] | 52 | 935 s | – | – | – | – | – | – | – | – | – | – | – | – | – |
| CC(=O)O[C@H]1C(=O)[C@@]2(C)[C@H]([C@H](OC(=O)c3ccccc3)[C@]3(O)C[C@H](OC(=O)[C@H](O)[C@@H](NC(=O)c4ccccc4)c4ccccc4)C(C)=C1C3(C)C)[C@]1(OC(C)=O)CO[C@@H]1C[C@@H]2O [paclitaxel, reference compound] | 167 | 151 s | – | – | – | – | – | – | – | – | – | – | – | – | – |

Continued, in another order:

| Initial Rate of the Exponential Phase, Signal Response (porcine brain tubulin) [a.u.s^−1 × 10^−6] | Lag Time (porcine brain tubulin) | lag time of tubulin polymerization (porcine brain tubulin) | SMILES | IC50 [1] [µM] | IC50 ([2]; MCF7, MTT, 72 h exposure, ± SD) [µM] | CSI MCF-7 (cancer selectivity index) ([2]; IC50(3T3)/IC50(MCF-7)) | IC50 ([3]; MTT, 72 h exposure, ± SD) [µM] | CSI AR230 (cancer selectivity index) ([3]; IC50(3T3)/IC50(AR-230)) | HORAC [4] [GAE] | IC50 [5, 6] [µM] | CSI AR230 (cancer selectivity index) ([3]; IC50(CCL-1)/IC50(AR-230)) | CSI MCF-7 (cancer selectivity index) ([2]; IC50(CCL-1)/IC50(MCF-7)) | IC50 ([5]; Fibroblast) [µM] | IC50 ([2]; MCF7, 72 h) [µM] | IC50 ([3]; 72 h) [µM] |
| --- | --- | --- | --- | --- | --- | --- | --- | --- | --- | --- | --- | --- | --- | --- | --- |
| 13.3 | 1400 s and 1407 s | – | Oc1ccc(/C=N/Nc2nc3ccccc3[nH]2)cc1O [Compound 1d] | – | – | – | 61.8 ± 5.7 | – | – | 113 ± 9.1 | ≈1.8 | – | – | – | – |
| 17.1 | 807 s | – | COc1ccc(/C=N/Nc2nc3ccccc3[nH]2)cc1 [Compound 1f] | 355 ± 5.3 | 11.2 ± 1.3 | ≈31.6 | 19.4 ± 2.2 | ≈18.2 | – | – | – | – | – | – | – |
| 10.7 | 1000 s | – | COc1cccc(OC)c1/C=N/Nc1nc2ccccc2[nH]1 [Compound 1g] | 261 ± 4.7 | 7.9 ± 2.1 | ≈33 | 11.5 ± 1 | ≈22.6 | – | – | – | – | – | – | – |
| 23.1 | 1090 s | – | COc1cc(/C=N/Nc2nc3ccccc3[nH]2)cc(OC)c1 [Compound 1h] | 335 ± 7 | 4.6 ± 0.7 | ≈72.8 | 5.9 ± 0.9 | ≈56.7 | – | – | – | – | – | – | – |
| 20.6 | 988 s | – | COc1cc(/C=N/Nc2nc3ccccc3[nH]2)cc(OC)c1OC [Compound 1i] | 71 ± 2.4 | 1.2 ± 0.2 | ≈59.1 | 1.7 ± 0.3 | ≈41.7 | – | – | – | – | – | – | – |
| 16.9 | 1200 s | more than 20 min | COc1cccc(/C=N/Nc2nc3ccccc3[nH]2)c1O [Compound 1j] | – | 6.4 ± 1.2 | – | 1.1 ± 0.2 | – | – | > 400 | ≈ 363; also recorded: ≈363.6 | > 50 | – | – | – |
| 9.7 | 1295 s | more than 20 min | COc1ccc(/C=N/Nc2nc3ccccc3[nH]2)c(O)c1 [Compound 1k] | – | 1.5 ± 0.3 | – | 0.9 ± 0.1 | – | – | 102 ± 7.3 | ≈113 | ≈67.8 | – | – | – |
| 16 | no lag phase | – | COc1ccc(/C=N/Nc2nc3ccccc3[nH]2)cc1O [Compound 1l] | 134.7 ± 1.3 | 27.6 ± 3.5 | ≈4.8 | 16.8 ± 3.4 | ≈8 | – | – | – | – | – | – | – |
